In brackets after ≈: the same amount, converted by molar mass.

The test system of data set [1] is Staphylococcus aureus. Description: Antibacterial activity against Staphylococcus aureus at 75 ug/ml after 18 to 24 hrs by disc diffusion method. The note with it: read-out: IZ. Type of data set: functional. A general note: A growth-free zone around the sample is the usual read-out of agar diffusion tests.
The test system of data set [2] is Staphylococcus aureus. The experiment in a line: Antibacterial activity against Staphylococcus aureus at 50 ug/ml after 18 to 24 hrs by disc diffusion method. Type of data set: functional. To be noted: read-out: IZ.
Data set [3] deals with Pseudomonas aeruginosa. The experiment in a line: Antibacterial activity against Pseudomonas aeruginosa at 75 ug/ml after 18 to 24 hrs by disc diffusion method. Type of data set: functional. To be noted: read-out: IZ.
A further data set deals with Vero. The experiment in a line: Cytotoxicity against African green monkey Vero cells after 72 hrs by MTT assay. Type of data set: cell-based. To be noted: Chlorocebus sabaeus. On the technique in general: Tetrazolium dyes change colour on reduction, which living cells bring about.
Data set [4] deals with Pseudomonas aeruginosa. The experiment in a line: Antibacterial activity against Pseudomonas aeruginosa at 50 ug/ml after 18 to 24 hrs by disc diffusion method. Type of data set: functional. To be noted: read-out: IZ.
For data set [5], the system named is Escherichia coli. Description: Antibacterial activity against Escherichia coli at 50 ug/ml after 18 to 24 hrs by disc diffusion method. Type of data set: functional. To be noted: read-out: IZ.
The subject of data set [6] is Escherichia coli. Description: Antibacterial activity against Escherichia coli at 75 ug/ml after 18 to 24 hrs by disc diffusion method. Type of data set: functional. The note with it: read-out: IZ.
The test system of data set [7] is Mycobacterium tuberculosis. The experiment in a line: Antimycobacterial activity against Mycobacterium tuberculosis H37Rv ATCC 27294 after 5 days by microplate alamar blue assay. The note with it: H37Rv ATCC 27294, 120 h. Type of data set: functional. Background: Resazurin is reduced to fluorescent resorufin, in cell work by metabolically active cells.
Data set [8] is described as follows: Selectivity index, ratio of IC50 for African green monkey Vero cells to MIC for Mycobacterium tuberculosis H37Rv ATCC 27294. Type of data set: toxicity, cell-based.

On to `Cc1nn(CC(=O)N2c3ccccc3Sc3ccc(Cl)cc32)c(=N)s1`, for which the values for the zone of inhibition at 75 µg/mL in the data set on Staphylococcus aureus [1], with Pseudomonas aeruginosa [3] and in the data set with Escherichia coli [6] were 13 mm, 13 mm and 16 mm, respectively. In addition, the zone of inhibition at 50 µg/mL is 10 mm in the data set on Staphylococcus aureus [2], 9 mm in the data set on Pseudomonas aeruginosa [4] and 14 mm in the data set on Escherichia coli [5]. For the same molecule, it took 470 µg/mL (≈ 1210 µM) to reach half-maximal inhibition with Vero (IC50). The same molecule showed an MIC in data set [7] of 1.6 µg/mL (≈ 4.11 µM). Also, the selectivity ratio in [8] worked out at 294.
`N=c1sc(-c2ccc(F)cc2)nn1CC(=O)N1c2ccccc2Sc2ccccc21`: the zone of inhibition at 75 µg/mL with Staphylococcus aureus [1] worked out at 8 mm; in the data set with Pseudomonas aeruginosa [3], 12 mm; with Escherichia coli [6], 11 mm. Further, the zone of inhibition at 50 µg/mL was determined as 5 mm with Staphylococcus aureus [2], 8 mm with Pseudomonas aeruginosa [4] and 8 mm with Escherichia coli [5]. In addition, it took 247 µg/mL (≈ 568 µM) to reach half-maximal inhibition with Vero (IC50). Also, in [7], the MIC stood at 3.12 µg/mL (≈ 7.19 µM). In [8], the selectivity ratio is 79.1.

As a reminder, the IC50 is the midpoint of a concentration-inhibition curve. The term MIC denotes the smallest concentration in the dilution series that meets the test's criterion for growth inhibition.

For the origin of these results see ChEMBL document CHEMBL3739317, “Design of new phenothiazine-thiadiazole hybrids via molecular hybridization approach for the development of potent antitubercular agents” (Eur J Med Chem, 2015).
